Assay: Stability of pure lycopene isomers in n-hexane during storage at room temperature
Assay type: physicochemical
Settings: for concentration (% of total isomers) 5-Z / concentration (% of total isomers) all E / concentration (% of total isomers) x-Z / concentration (% of total isomers) 9-Z / concentration (% of total isomers) 13-Z: n-hexane, room temperature, absence of light
Procedure: Pure 5-Z, 9-Z, 13-Z and all-E lycopene were isolated from isomerised tomato oleoresin (submitted to 1 hour heating), by collecting the fractions containing the corresponding peaks after HPLC separation (see below the experimental conditions). Peaks were collected during two consecutive HPLC runs and the corresponding fractions were pooled.
Lycopene isomer profiles were determined by normal phase HPLC according to the method described by Schierle et al. (Schierle, J., Bretzel, W., Bühler, I., Faccin, N., Hess, D., Steiner, K., Schuep, W. (1997). Food. Chem. 59: 459). Samples of isomerized oleoresins were dissolved in n-hexane containing 50 ppm BHT and spun at maximum speed in an Eppendorf Lab centrifuge. The resulting supernatants were immediately analyzed by HPLC. The HPLC system used was a 1100 series Hewlett-Packard model equipped with an ultraviolet-visible photodiode array detector. Data were simultaneously acquired at 470 nm, 464 nm, 346 nm and 294 nm. Samples (10 μL) were separated using a combination of three Nucleosil 300-5 columns (4 mm internal diameter×250 mm length, Macherey-Nagel). […] Flow rate was 0.8 mL/min. Lycopene Z-isomers were identified according to literature data.
Amounts of lycopene isomers were calculated based on surface areas of the HPLC peaks using the same extinction coefficient as the all-E lycopene. Therefore, the lycopene concentration in products containing Z-isomers is slightly underestimated since it is recognized that the extinction coefficients of Z-isomers are lower than that of the all-E isomer.
Stability of lycopene isomers was investigated both in n-hexane and in a tomato oleoresin isomerized by 4 hour heating in ethyl acetate. For this purpose, pure lycopene isomers were stored for 33 days in n-hexane at room temperature and in the absence of light, and the isomerized tomato oleoresin was kept for 55 days at room temperature in the absence of light. Total lycopene concentration and lycopene isomer profiles were measured at various time intervals during the storage.

SMILES	concentration (% of total isomers) 5-Z (0 days)	concentration (% of total isomers) all E (0 days)	concentration (% of total isomers) x-Z (0 days)	concentration (% of total isomers) 5-Z (1 day)	concentration (% of total isomers) all E (1 day)	concentration (% of total isomers) x-Z (1 day)	concentration (% of total isomers) 5-Z (2 days)	concentration (% of total isomers) all E (2 days)	concentration (% of total isomers) x-Z (2 days)	concentration (% of total isomers) 5-Z (5 days)	concentration (% of total isomers) all E (5 days)	concentration (% of total isomers) x-Z (5 days)	concentration (% of total isomers) 5-Z (12 days)	concentration (% of total isomers) 9-Z (12 days)	concentration (% of total isomers) 13-Z (12 days)	concentration (% of total isomers) all E (12 days)	concentration (% of total isomers) x-Z (12 days)	concentration (% of total isomers) 5-Z (33 days)	concentration (% of total isomers) 9-Z (33 days)	concentration (% of total isomers) 13-Z (33 days)	also measured
CC(C)=CCC\C(C)=C/C=C/C(C)=C/C=C/C(C)=C/C=C/C=C(C)/C=C/C=C(C)/C=C/C=C(\C)CCC=C(C)C [5-Z lycopene]	95.5 % of total isomers	1.1 % of total isomers	3.4 % of total isomers	84.3 % of total isomers	2.2 % of total isomers	13.5 % of total isomers	76.9 % of total isomers	2.4 % of total isomers	20.6 % of total isomers	68.4 % of total isomers	3.9 % of total isomers	27.7 % of total isomers	65.3 % of total isomers	0.7 % of total isomers	1.7 % of total isomers	5.6 % of total isomers	26.7 % of total isomers	53.5 % of total isomers	2.3 % of total isomers	2.8 % of total isomers	concentration (% of total isomers) all E (33 days): 10.7 % of total isomers; concentration (% of total isomers) x-Z (33 days): 30.7 % of total isomers
CC(C)=CCC/C(C)=C/C=C/C(C)=C\C=C\C(C)=C\C=C\C=C(C)\C=C\C=C(C)\C=C\C=C(/C)CCC=C(C)C [9-Z lycopene]	1.8 % of total isomers	4.4 % of total isomers	0 % of total isomers	2.1 % of total isomers	5.8 % of total isomers	2.8 % of total isomers	11.6 % of total isomers	6.0 % of total isomers	5.9 % of total isomers	1.5 % of total isomers	5.6 % of total isomers	8.6 % of total isomers	2.3 % of total isomers	66.5 % of total isomers	8.2 % of total isomers	7.0 % of total isomers	15.9 % of total isomers	4.1 % of total isomers	56.0 % of total isomers	10.5 % of total isomers	concentration (% of total isomers) 9-Z (0 days): 93.3 % of total isomers; concentration (% of total isomers) 13-Z (0 days): 0.6 % of total isomers; concentration (% of total isomers) 9-Z (1 day): 87.1 % of total isomers; concentration (% of total isomers) 13-Z (1 day): 2.3 % of total isomers; concentration (% of total isomers) 9-Z (2 days): 83.5 % of total isomers; concentration (% of total isomers) 13-Z (2 days): 3.1 % of total isomers; concentration (% of total isomers) 9-Z (5 days): 79.2 % of total isomers; concentration (% of total isomers) 13-Z (5 days): 5.2 % of total isomers; concentration (% of total isomers) all E (33 days): 9.8 % of total isomers; concentration (% of total isomers) x-Z (33 days): 19.7 % of total isomers
CC(C)=CCC/C(C)=C/C=C/C(C)=C/C=C/C(C)=C\C=C\C=C(C)\C=C\C=C(C)\C=C\C=C(/C)CCC=C(C)C [13-Z lycopene]	0 % of total isomers	2.4 % of total isomers	1.0 % of total isomers	0 % of total isomers	42.6 % of total isomers	0 % of total isomers	0 % of total isomers	59.8 % of total isomers	1.5 % of total isomers	1.9 % of total isomers	68.9 % of total isomers	4.3 % of total isomers	5.3 % of total isomers	2.6 % of total isomers	20.8 % of total isomers	65.5 % of total isomers	5.8 % of total isomers	11.7 % of total isomers	4.2 % of total isomers	16.9 % of total isomers	fraction of the isomer transformed / converted into other isomers (after 33 day storage in n-hexane at room temperature in the absence of light): more than 80%; concentration (% of total isomers) 9-Z (0 days): 0 % of total isomers; concentration (% of total isomers) 13-Z (0 days): 96.6 % of total isomers; concentration (% of total isomers) 9-Z (1 day): 0.4 % of total isomers; concentration (% of total isomers) 13-Z (1 day): 57.0 % of total isomers; concentration (% of total isomers) 9-Z (2 days): 0 % of total isomers; concentration (% of total isomers) 13-Z (2 days): 38.7 % of total isomers; concentration (% of total isomers) 9-Z (5 days): 1.5 % of total isomers; concentration (% of total isomers) 13-Z (5 days): 23.4 % of total isomers; concentration (% of total isomers) all E (33 days): 57.0 % of total isomers; concentration (% of total isomers) x-Z (33 days): 10.2 % of total isomers
CC(C)=CCC/C(C)=C/C=C/C(C)=C/C=C/C(C)=C/C=C/C=C(C)/C=C/C=C(C)/C=C/C=C(\C)CCC=C(C)C [all-E lycopene]	0.5 % of total isomers	97.6 % of total isomers	0.1 % of total isomers	1.2 % of total isomers	86.0 % of total isomers	1.5 % of total isomers	2.6 % of total isomers	78.4 % of total isomers	3.0 % of total isomers	3.8 % of total isomers	69.3 % of total isomers	5.1 % of total isomers	6.4 % of total isomers	2.0 % of total isomers	18.2 % of total isomers	67.8 % of total isomers	5.6 % of total isomers	13.4 % of total isomers	3.8 % of total isomers	15.7 % of total isomers	concentration (% of total isomers) 9-Z (0 days): 0.5 % of total isomers; concentration (% of total isomers) 13-Z (0 days): 1.4 % of total isomers; concentration (% of total isomers) 9-Z (1 day): 1.2 % of total isomers; concentration (% of total isomers) 13-Z (1 day): 10.1 % of total isomers; concentration (% of total isomers) 9-Z (2 days): 1.1 % of total isomers; concentration (% of total isomers) 13-Z (2 days): 15.0 % of total isomers; concentration (% of total isomers) 9-Z (5 days): 2.2 % of total isomers; concentration (% of total isomers) 13-Z (5 days): 19.6 % of total isomers; concentration (% of total isomers) all E (33 days): 58.7 % of total isomers; concentration (% of total isomers) x-Z (33 days): 8.4 % of total isomers

Source: patent US8216619B2, “Stable and bioavailable compositions of isomers of carotenoids for skin and hair” (Indena S.p.A., priority 2006, dated 2012)
